Read-outs that look alike come from different tables or passages of the source.
How the values were obtained:
[1] = Cytotoxicity evaluation on HepG2 cell line (MTT); type: cell-based; details: human, HepG2 cells
Procedure: The tested molecules’ cytotoxicity was assessed according to the method of Mosmann with slight modifications. […] Triplicate assays were performed for each sample. Each plate-well was then microscope-examined to detect possible precipitate formation before the medium was aspirated from the wells. 100 µL of MTT (3-(4,5-dimethyl-2-thiazolyl)-2,5-diphenyl-2H-tetrazolium bromide) solution (0.5 mg/mL in medium without FCS) were then added to each well. […] Plates were shaken vigorously (700 rpm) for 10 min. The absorbance was measured at 570 nm with 630 nm as reference wavelength using a BIO-TEK ELx808 Absorbance Microplate Reader. DMSO was used as blank and doxorubicin (purchased from Sigma Aldrich) as positive control. Cell viability was calculated as percentage of control (cells incubated without compound). […] (Palo Alto, CA, USA)). CC50 values represent the mean value calculated from three separate experiments.

[2] = test system: L. donovani promastigotes; test: Antileishmanial activity against L. donovani promastigotes (MTT assay); type: cell-based; details: Leishmania donovani, 72 h, read-out: EC50 L. donovani Pro.
Procedure: The Leishmania species used in this study were L. donovani (MHOM/IN/00/DEVI) purchased from CNR Leishmania (Montpellier, France). Leishmania promastigote forms were grown in Schneider’s Drosophila medium (Life Technologies, Saint-Aubin, France) supplemented with 100 U/mL penicillin, 100 µg/mL streptomycin, 2 mM L-glutamine and 20% FCS (Life Technologies, Saint-Aubin, France) at 27 °C. The in vitro evaluation of the tested compound’s antileishmanial activity on promastigote forms was carried out by MTT assay according to the Mosmann protocol with some modifications. Briefly, promastigotes in log-phase were incubated at an average density of 10^6 parasites/mL in sterile 96-well plates with various concentrations of compound dissolved in DMSO (final concentration less than 0.5% v/v), in duplicate. Appropriate controls treated with DMSO, Miltefosine, Amphotericin B, Fexinidazole, and Fexinidazole sulfone (reference drugs purchased from Sigma-Aldrich, Saint-Louis, Missouri, USA) were added to each set of experiments. After a 72 h incubation period at 27 °C, parasitic metabolic activity was determined. Each plate-well was then microscope-analyzed to detect any precipitate formation. 20 µL of MTT (3-(4,5-dimethylthiazol-2-yl)-2,5-diphenyltetrazolium bromide) (Sigma-Aldrich, Saint-Louis, Missouri, USA) solution (5 mg/mL in PBS) were added to each well and incubated for 4 h at 27 °C. The enzyme reaction was then stopped by addition of 100 µL of 50% isopropanol–10% sodium dodecyl sulfate. Plates were shaken vigorously at 300 rpm for 10 min. The absorbance was measured at 570 nm in a BIO-TEK Elx808 (Biotek, Colmar, France) absorbance microplate reader. […] EC50 values were calculated by non-linear regression analysis processed dose-response curves, using TableCurve 2D V5.0 software (Systat Software Inc. (Palo Alto, CA, USA)). EC50 values represent the mean value calculated from at least three separate experiments.

[3] = test system: T. b. brucei BSF trypomastigotes; test: Antitrypanosomal evaluation on T. b. brucei BSF trypomastigotes (Alamar Blue); type: cell-based; details: Trypanosoma brucei, trypomastigote blood stream form
Procedure: The effects of the tested compounds on the growth of T. b. brucei were assessed by Alamar Blue® assay described by Räz et al. T. b. brucei AnTat 1.9 (IMTA, Antwerpen, Belgium) was cultured in MEM with Earle’s salts, supplemented according to the protocol of Baltz et al. with the following modifications: 0.5 mM mercaptoethanol (Sigma Aldrich®, France), 1.5 mM L-cysteine (Sigma Aldrich®), 0.05 mM bathocuproïne sulfate (Sigma Aldrich®) and 20% heat-inactivated horse serum (Gibco®, France), at 37 °C and 5% CO2. They were incubated at an average density of 2000 parasites/100 µL in sterile 96-wells plates (Fisher®, France) with various concentrations of compounds dissolved in DMSO, in duplicate. Appropriate controls suramin, treated with sterile water, and fexinidazole, treated with DMSO on sterile water (reference drugs purchased from Sigma Aldrich, France and Fluorochem, UK) were added to each set of experiments. After a 69 h incubation period at 37 °C, 10 µL of the viability marker Alamar Blue® (Fisher, France) were then added to each well, and the plates were incubated for 5 h. The plates were read in a ENSPIRE microplate reader (PerkinElmer, Waltham, MA, USA) using an excitation wavelength of 530 nm and an emission wavelength of 590 nm. […] EC50 were calculated by nonlinear regression analysis processed on dose-response curves, using GraphPad Prism software (USA). EC50 values were calculated from three separate experiments.

[4] = test system: L. infantum promastigotes; test: Antileishmanial activity against L. infantum promastigotes (luciferase assay); type: cell-based; details: Leishmania infantum, 72 h, read-out: EC50 L. infantum Pro.
Procedure: L. infantum promastigotes (MHOM/MA/67/ITMAP-263, CNR Leishmania, Montpellier, France, expressing luciferase activity) were used in the following tests. The effects of the tested compounds on the growth of L. infantum promastigotes were assessed by Luciferase Assay. Briefly, promastigotes in log-phase in RPMI 1640 medium supplemented with 10% fetal calf serum (FCS), 2 mM L-glutamine and antibiotics (100U/mL penicillin, 100 µg/mL streptomycin and 50µg/mL geneticin), were incubated at an average density of 10^6 parasites/mL (100 µL/well) in sterile 96-well plates with various concentrations of compounds dissolved in DMSO (final concentration less than 0.5% v/v), in duplicate. Appropriate controls (100 µL/well) treated by DMSO and reference drugs (purchased for the majority from Sigma Aldrich) were added to each set of experiments. After a 72 h incubation period at 24 °C, each plate-well was then microscope-examined for detecting possible precipitate formation. To estimate the luciferase activities of promastigotes, 80 µL of each well are transferred in white 96-well plates, Steady Glow reagent (Promega) was added according to manufacter’s instructions, and plates were incubated for 2 min. The luminescence was measured in a FLUOstar Omega (BMG Labtech, Champigny-sur-Marne, France). […] EC50 were calculated by non-linear regression analysis processed on dose–response curves, using TableCurve 2D V5 software.

[5] = Cytotoxicity on THP-1 cell line (MTT); type: cell-based; details: human, THP-1 cells, THP1 cell line
Procedure: The plates were incubated for 72 h at 37 °C. Each well plate was then microscope-examined for detecting possible precipitate formation before the medium was aspirated from the wells. 100 µL of MTT solution (0.5 mg/mL in medium) were then added to each well. Cells were incubated for 2 h at 37 °C. […] Plates were shaken vigorously (300 rpm) for 10 min. The absorbance was measured at 570 nm using a BIO-TEK ELx808 Absorbance Microplate Reader. DMSO was used as blank and doxorubicin (purchased from Sigma Aldrich) as positive control. Cell viability was calculated as percentage of control (cells incubated with DMSO). […] (Palo Alto, CA, USA). CC50 values represent the mean value calculated from three separate experiments.

[6] = test system: L. infantum axenic amastigotes; test: Antileishmanial activity on L. infantum axenic amastigotes (luciferase assay); type: cell-based; details: Leishmania infantum, 48 h, read-out: EC50 L. infantum Axenic Ama.
Procedure: L. infantum promastigotes were harvested in logarithmic phase of growth by centrifugation at 900× g for 10 min. The supernatant was removed carefully and was replaced by the same volume of RPMI 1640 complete medium at pH 5.4 and incubated for 24 h at 24 °C. The acidified promastigotes were then incubated for 24 h at 37 °C in a ventilated flask to transform them into axenic amastigotes. The amastigote stage was checked both by electron microscopy (short flagellum with small bulbous tip extending beyond a spherical cell body) and RT-PCR to confirm the overexpression of ATG8 and amastin genes in amastigotes, relative to promastigotes. The effects of the tested compounds on the growth of L. infantum axenic amastigotes were assessed as follows. L. infantum amastigotes were incubated at a density of 2 × 10^6 parasites/mL in sterile 96-well plates with various concentrations of compounds dissolved in DMSO (final concentration less than 0.5% v/v), in duplicate. Appropriate controls treated with DMSO, amphotericin B, miltefosine, fexinidazole and fexinidazole sulfone were added to each set of experiments. After a 48 h incubation period at 37 °C, each plate-well was then microscopically examined to detect any precipitate formation.
(§1) • Luciferase activity and determination of EC50 were performed as above.

[7] = test system: L. infantum intracellular amastigotes; test: Antileishmanial activity on L. infantum intracellular (intra-THP1 macrophage) amastigotes; type: cell-based; details: Leishmania infantum, THP-1; intramacrophage (THP1) amastigotes, 120 h; read-out: EC50 L. infantum Intra. Ama.
Procedure: The undifferentiated THP1 human monocyte cells (acute monocytic leukemia cell line purchased from ATCC, ref TIB-202) were grown in RPMI 1640 medium (Life Technologies, Saint-Aubin, France) supplemented with 10% FCS (Life Technologies, Saint-Aubin, France), 100 U/mL penicillin, 100 µg/mL streptomycin and 2 mM L-glutamine at 37 °C, 5% CO2. The culture was maintained between 3.10^5 and 1.10^6 cells/mL. The in vitro evaluation of the antileishmanial activity on intracellular amastigote forms of the tested compound was assessed as below.
Briefly, 200 μL of THP-1 cells with Phorbol 12-Myristate 13-Acetate (final concentration 50 ng/mL) were seeded in 96-well plates at an average density of 0.77 × 10^5 cells/mL and incubated for 96 h at 37 °C, 5% CO2. Promastigotes were centrifuged at 3000 rpm for 10 min and the supernatant replaced by the same volume of complete RPMI pH 5.4 and incubated for 24 h at 27 °C. Differentiated THP-1 cells were then infected by acidified promastigotes with an infection ratio of twenty parasites for one macrophage and incubated for 24 h at 37 °C, 5% CO2.
as §1

Structure (SMILES)	CC50 at 72 h [1]	EC50 ([2]; promastigotes, MTT)	EC50 [3]	EC50 [4]	CC50 at 72 h [5]	EC50 [6]	melting point	EC50 [2]	EC50 [7]
O=[N+]([O-])c1c(CS(=O)(=O)c2ccc(O)cc2)nc2c(Br)cc(Cl)cn12 [Compound 2c, 4-{[(8-Bromo-6-Chloro-3-Nitroimidazo[1,2-a]pyridin-2-yl)methyl]sulfonyl}phenol]	> 3.9 µM	> 3.1 µM	0.4 ± 0.03 µM	> 100 µM	> 100 µM	> 5 µM	242 °C		
C[C@@H]1[C@H](O)[C@@H](C)/C=C/C=C/C=C/C=C/C=C/C=C/C=C/[C@H](O[C@@H]2O[C@H](C)[C@@H](O)[C@H](N)[C@@H]2O)C[C@@H]2O[C@](O)(C[C@@H](O)C[C@@H](O)[C@H](O)CC[C@@H](O)C[C@@H](O)CC(=O)O[C@H]1C)C[C@H](O)[C@H]2C(=O)O [Amphotericin B, reference compound]				0.04 ± 0.01 µM	12.1 ± 1.3 µM	0.08 ± 0.02 µM		0.07 ± 0.01 µM	0.06 ± 0.01 µM
CCCCCCCCCCCCCCCCOP(=O)([O-])OCC[N+](C)(C)C [Miltefosine, reference compound]				18.2 ± 0.5 µM	28.1 ± 3.4 µM	0.3 ± 0.02 µM			0.4 ± 0.14 µM
Cn1c([N+](=O)[O-])cnc1COc1ccc(S(C)(=O)=O)cc1 [Fexinidazole sulfone, reference compound]		1.2 ± 0.2 µM		1.1 ± 0.1 µM	> 100 µM	4.3 ± 0.1 µM			17.8 ± 1.4 µM
Cc1ccc(C(=O)Nc2ccc(S(=O)(=O)O)c3cc(S(=O)(=O)O)cc(S(=O)(=O)O)c23)cc1NC(=O)c1cccc(NC(=O)Nc2cccc(C(=O)Nc3cc(C(=O)Nc4ccc(S(=O)(=O)O)c5cc(S(=O)(=O)O)cc(S(=O)(=O)O)c45)ccc3C)c2)c1 [Suramin, reference compound]	> 100 µM		0.08 ± 0.04 µM						
O=[N+]([O-])c1c(CS(=O)(=O)CCC(F)(F)F)nc2c([S+]([O-])c3ccc(Cl)cc3)cc(Cl)cn12 (stereo not drawn) [Compound 6a, 6-Chloro-8-[(4-Chlorophenyl)sulfinyl]-3-Nitro-2-[(3,3,3-Trifluoropropylsulfonyl)methyl] imidazo[1,2-a]pyridine]	> 5 µM	1.9 ± 0.3 µM		7.4 ± 0.4 µM	> 100 µM	5 ± 0.1 µM	221 °C		3.3 ± 0.2 µM

From article PMC9415646, “Improving Aqueous Solubility and In Vitro Pharmacokinetic Properties of the 3-Nitroimidazo[1,2-a]pyridine Antileishmanial Pharmacophore” (Pharmaceuticals, 2022)
